The text below walks through data of article PMC4847484, “Chemical generation and modification of peptides containing multiple dehydroalanines” (Chemical Communications (Cambridge, England), 2015).

Read-outs that look alike come from different tables or passages of the source. Positions of bridges follow the written chain, without caps; N, C: chain ends. No end group written: not given here.

Data set [1] concerns the target human plasma kallikrein (Homo sapiens, UniProt P03952). Put plainly: Kallikrein inhibition assay (residual HPK activity, fluorogenic substrate Z-Phe-Arg-AMC). The class given is biochemical.
For data set [2] the following is noted: the molecule shown is the open-chain precursor, crosslinker bond, 31-membered ring.
Setting [3] is: TBMB/NH4HCO3, aq NH4HCO3 (pH 8)/MeCN, 1.67 mM.

Sequence of human plasma kallikrein (P03952 391-638 limits assumed): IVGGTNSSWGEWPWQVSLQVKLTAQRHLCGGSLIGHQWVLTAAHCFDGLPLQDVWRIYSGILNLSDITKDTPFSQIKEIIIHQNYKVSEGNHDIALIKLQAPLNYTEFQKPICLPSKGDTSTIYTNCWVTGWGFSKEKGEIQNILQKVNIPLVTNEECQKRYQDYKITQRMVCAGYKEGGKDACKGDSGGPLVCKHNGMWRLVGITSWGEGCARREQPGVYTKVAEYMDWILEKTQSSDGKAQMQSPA
Sequence of human plasma kallikrein (P03952 20-390 partner limits assumed): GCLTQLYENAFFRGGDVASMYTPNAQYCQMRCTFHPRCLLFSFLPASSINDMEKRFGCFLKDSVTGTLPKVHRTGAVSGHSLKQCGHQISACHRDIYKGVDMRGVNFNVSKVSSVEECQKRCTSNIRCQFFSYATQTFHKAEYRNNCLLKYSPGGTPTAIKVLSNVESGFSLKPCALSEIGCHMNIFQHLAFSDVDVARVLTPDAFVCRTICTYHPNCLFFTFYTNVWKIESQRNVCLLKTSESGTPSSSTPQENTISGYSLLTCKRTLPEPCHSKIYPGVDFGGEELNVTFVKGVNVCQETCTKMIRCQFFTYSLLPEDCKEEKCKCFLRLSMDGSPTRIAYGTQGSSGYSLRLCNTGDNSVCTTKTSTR

As for “13: stereochemically scrambled bicyclic peptide mixture from cyclisation of 12 with trithiol 2 (ACSDRFRNCPADEALCG; linker 2-9-16 via 1,3,5‑tris(mercaptomethyl)benzene; also: mixture of 8 stereoisomers (D/L at Cys2, Cys9, Cys16)) [compound 13]”, the IC50 in data set [1] (crude reaction mixture of the conversion of 12 to 13, before purification, same kallikrein inhibition assay) stood at 238 ± 21 nM; in data set [1] (purified peptide, HPK incubated 30 min at room temperature with bicyclic peptide, substrate Z-Phe-Arg-AMC, Tris 10 mM pH 7.4, NaCl, MgCl2, CaCl2, 0.1% BSA, 0.01% Triton X-100, 5% DMSO, ex 355 / em 460 nm, logistic fit), 144 ± 31 nM.
Consider “H-Ala-Cys-Ser-Asp-Arg-Phe-Arg-Asn-Cys-Pro-Ala-Asp-Glu-Ala-Leu-Cys-Gly-NH2?”, for which the ring closure, yield after HPLC in data set [2] (setting [3]) was 29%.
Regarding “H-Ala-Cys-Ser-Asp-Arg-Phe-Arg-Asn-Cys-Pro-Ala-Asp-Glu-Ala-Leu-dCys-Gly-NH2?”, the ring closure, yield after HPLC in data set [2] (setting [3]) stood at 10%.
“H-Ala-Cys-Ser-Asp-Arg-Phe-Arg-Asn-dCys-Pro-Ala-Asp-Glu-Ala-Leu-Cys-Gly-NH2?”: the ring closure, yield after HPLC in data set [2] (setting [3]) was 16%.
Consider “H-Ala-Cys-Ser-Asp-Arg-Phe-Arg-Asn-dCys-Pro-Ala-Asp-Glu-Ala-Leu-dCys-Gly-NH2?”, for which the ring closure, yield after HPLC in data set [2] (setting [3]) worked out at 24%.
In data set [2] (1,3,5-tris(mercaptomethyl)benzene/K2CO3, H2O/DMF 1:1, 1.15 mM, 37.0 °C), “H-Ala-Dha-Ser-Asp-Arg-Phe-Arg-Asn-Dha-Pro-Ala-Asp-Glu-Ala-Leu-Dha-Gly-NH2” gave a ring closure, yield after HPLC of 43%.
In the case of “H-Ala-dCys-Ser-Asp-Arg-Phe-Arg-Asn-Cys-Pro-Ala-Asp-Glu-Ala-Leu-Cys-Gly-NH2?”, the ring closure, yield after HPLC in data set [2] (setting [3]) turned out to be 26%.
For the substance “H-Ala-dCys-Ser-Asp-Arg-Phe-Arg-Asn-Cys-Pro-Ala-Asp-Glu-Ala-Leu-dCys-Gly-NH2?”, the ring closure, yield after HPLC in data set [2] (setting [3]) stood at 16%.
Same read-out and setting: under “H-Ala-dCys-Ser-Asp-Arg-Phe-Arg-Asn-dCys-Pro-Ala-Asp-Glu-Ala-Leu-Cys-Gly-NH2?” stands 26%.
In data set [2] (setting [3]), “H-Ala-dCys-Ser-Asp-Arg-Phe-Arg-Asn-dCys-Pro-Ala-Asp-Glu-Ala-Leu-dCys-Gly-NH2?” gave a ring closure, yield after HPLC of 26%.
